Measured values reported in patent US20260224561A1, “INHIBITORS OF CYCLIC ADP RIBOSE HYDROLASE AND METHODS OF USE THEREOF” (Flagship Pioneering Innovations VI, LLC, priority 2022, published 2026).

Target: T1, Human recombinant CD38 (Homo sapiens, UniProt P28907)
T1 construct: purchased BPS Bioscience
T1 sequence (P28907 1-300): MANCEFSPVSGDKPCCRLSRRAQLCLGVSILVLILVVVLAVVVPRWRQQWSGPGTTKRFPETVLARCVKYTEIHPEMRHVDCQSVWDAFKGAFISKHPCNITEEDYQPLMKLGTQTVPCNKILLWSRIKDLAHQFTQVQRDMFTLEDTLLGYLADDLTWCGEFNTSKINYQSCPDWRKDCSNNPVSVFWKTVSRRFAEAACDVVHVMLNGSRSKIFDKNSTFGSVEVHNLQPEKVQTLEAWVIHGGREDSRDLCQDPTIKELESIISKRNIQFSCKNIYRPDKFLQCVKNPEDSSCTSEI
Assay: CD38 hydrolase inhibition assay
Type: biochemical
Details: glycohydrolase activity, 0.2 ng/μL CD38, 100 μM ε-NAD substrate, fluorescence excitation 300 nm / emission 410 nm
Description: Example 22: CD38 Hydrolase Inhibition Assay
The CD38 hydrolase inhibition assay measures the glycohydrolase activity of CD38, using an NAD analog as substrate and measuring formation of a fluorescent ADP ribose analog. A 4× buffer was prepared with 1M sucrose and 160 mM Tris-HCl at pH 7.4, for a final assay concentration of 250 mM sucrose and 40 mM Tris-HCl. The 4× solution was kept at 4° C. and warmed to room temperature before use. Tween20 was added to 1× buffer for a final concentration of 0.05%. Human recombinant CD38 (BPS Bioscience) was diluted to 0.4 ng/μL in 1× buffer and 12.5 μL added to each plate well. Inhibitors were added and DMSO content was normalized to the highest concentration on the plate, with an upper limit of 0.5%. Finally, ε-NAD was diluted to 200 μM in 1× buffer and 12.5 μL added to each plate well, for final well concentrations of 0.2 ng/μL CD38 and 100 μM ε-NAD. Plates were covered and incubated at room temperature for […], and then read on a plate reader using excitation 300 nm and emission 410 nm. […] IC50s for test compounds were determined either using GraphPad Prism software v9.3, or CDD Vault.

SMILES	IC50 [nM]
COCCOc1cc(-n2ccnc2)cc(C(=O)Nc2ccnc(C(F)(F)F)c2)c1F [Compound 117, 2-fluoro-5-(imidazol-1-yl)-3-(2-methoxyethoxy)-N-[2-(trifluoromethyl)pyridin-4-yl]benzamide]	100 to 1000
CN(C)CCOc1cc(C(=O)Nc2ccnc(C(F)(F)F)c2)cc(-n2ccnc2)c1 [Compound 107, 3-[2-(dimethylamino)ethoxy]-5-(imidazol-1-yl)-N-[2-(trifluoromethyl)pyridin-4-yl]benzamide]	< 100
COCCOc1cc(C(=O)Nc2ccc3[nH]ncc3c2)cc(-n2ccnc2)c1 [Compound 126, 3-(imidazol-1-yl)-N-(1H-indazol-5-yl)-5-(2-methoxyethoxy) benzamide]	< 100
COCCOc1cc(C(=O)Nc2ccnc(C(F)(F)F)c2)cc(-c2cccnc2)c1 [Compound 120, 3-(2-methoxyethoxy)-5-(pyridin-3-yl)-N-[2-(trifluoromethyl)pyridin-4-yl]benzamide]	> 1000
COCCOc1cc(C(=O)Nc2ccc(C(F)(F)F)nc2)cc(-n2ccnc2)c1 [Compound 112, 3-(imidazol-1-yl)-5-(2-methoxyethoxy)-N-[6-(trifluoromethyl)pyridin-3-yl]benzamide]	< 100
COCCOc1cc(C(=O)Nc2ccnc(C(F)(F)F)c2)cc(-c2cncs2)c1 [Compound 116, 3-(2-methoxyethoxy)-5-(1,3-thiazol-5-yl)-N-[2-(trifluoromethyl)pyridin-4-yl]benzamide]	< 100

Results, then the compound that gave them:

IC50 [nM]	SMILES
< 100	COCCOc1cc(C(=O)Nc2ccc3nccnc3c2)cc(-n2ccnc2)c1 [Compound 128, 3-(imidazol-1-yl)-5-(2-methoxyethoxy)-N-(quinoxalin-6-yl) benzamide]
> 1000	COCCOc1cc(-n2ccnc2)cc(C(=O)Nc2ccnc(C(F)(F)F)c2)c1Cl [Compound 113]
100 to 1000	COCCOc1cc(C(=O)Nc2ccnc(C(F)(F)F)c2)cc(-n2cncc2CO)c1 [Compound 118]
< 100	COCCOc1cc(C(=O)Nc2ccc3cn[nH]c3c2)cc(-n2ccnc2)c1 [Compound 109, 3-(imidazol-1-yl)-N-(1H-indazol-6-yl)-5-(2-methoxyethoxy) benzamide]
< 100	COCCOc1cc(C(=O)Nc2ccc3[nH]cnc3c2)cc(-n2ccnc2)c1 [Compound 127, N-(1H-benzo[d]imidazol-6-yl)-3-(1H-imidazol-1-yl)-5-(2-methoxyethoxy)benzamide]
< 100	COCCOc1cc(C(=O)Nc2ccc(F)c(Cl)c2)cc(-n2ccnc2)c1 [Compound 111, N-(3-chloro-4-fluorophenyl)-3-(imidazol-1-yl)-5-(2-methoxyethoxy)benzamide]
< 100	COCCOc1cc(C(=O)Nc2cncc(Cl)c2)cc(-n2ccnc2)c1 [Compound 106, N-(5-chloropyridin-3-yl)-3-(imidazol-1-yl)-5-(2-methoxyethoxy) benzamide]
< 100	COc1cc(C(=O)Nc2ccnc(C(F)(F)F)c2)cc(-n2ccnc2)c1 [Compound 115, 3-(imidazol-1-yl)-5-methoxy-N-[2-(trifluoromethyl)pyridin-4-yl]benzamide]
